Laboratory results published in BigSolDB 2.1.

Cc1c(-c2ccccc2)oc2c(C(=O)O)cccc2c1=O
solubility (mole fraction)
Conditions | in DMF | in THF | in acetone | in acetonitrile | in ethanol | in ethyl acetate | in isobutanol | in methanol | in methyl acetate | in n-butyl acetate
278.15 K | 0.0129 | 0.013 | 0.0019 | 0.000211 | 0.00108 | 0.00088 | 0.000942 | 0.000344 | 0.000929 | 0.000947
283.15 K | 0.0165 | 0.0154 | 0.00219 | 0.000247 | 0.00128 | 0.00114 | 0.00118 | 0.000449 | 0.00112 | 0.0011
288.15 K | 0.0213 | 0.0183 | 0.00259 | 0.00031 | 0.00153 | 0.00141 | 0.00143 | 0.000587 | 0.00145 | 0.00125
293.15 K | 0.0259 | 0.0217 | 0.00301 | 0.00037 | 0.00181 | 0.00178 | 0.00175 | 0.000767 | 0.0019 | 0.00141
298.15 K | 0.0321 | 0.0261 | 0.0034 | 0.000458 | 0.00216 | 0.00221 | 0.00214 | 0.00102 | 0.00245 | 0.00158
303.15 K | 0.0399 | 0.0313 | 0.00381 | 0.000542 | 0.00258 | 0.00272 | 0.00261 | 0.00136 | 0.00302 | 0.00178
308.15 K | 0.0485 | 0.0371 | 0.00438 | 0.000641 | 0.00304 | 0.00341 | 0.00313 | 0.00181 | 0.00382 | 0.00197
313.15 K | 0.0587 | 0.0443 | 0.00489 | 0.000768 | 0.00363 | 0.00416 | 0.00376 | 0.00242 | 0.00473 | 0.00221
318.15 K | 0.072 | 0.0517 | 0.00546 | 0.000893 | 0.00431 | 0.00494 | 0.00458 | 0.00316 | 0.0057 | 0.00242
323.15 K | 0.0889 | 0.061 | 0.00617 | 0.00103 | 0.00512 | 0.00594 | 0.0056 | 0.00419 | 0.00673 | 0.00268
